According to patent publication US9233964B2, “Sulfamide piperazine derivatives as protein tyrosine kinase inhibitors and pharmaceutical use therof” (LEO PHARMA A/S, priority 2011, dated 2016):

How the values were obtained:
Assay type in all cases: biochemical
JAK1 = target: T1, JAK1 (Homo sapiens, UniProt P23458); experiment: JAK kinase assay (HTRF, phosphorylation of synthetic peptide), JAK1; details: catalytic domain, ATP at Km (7 μM); read-out: JAK1 kinase inhibitory activity (EC50)
T1 construct: JAK1 (aa 850-1154) and TYK2 (aa 871-1187) are expressed with an N-terminally fused GST-tag; GST (N); purchased Carna Biosciences, Inc; host or cells: baculovirus expression system
T1 sequence (P23458 850-1154): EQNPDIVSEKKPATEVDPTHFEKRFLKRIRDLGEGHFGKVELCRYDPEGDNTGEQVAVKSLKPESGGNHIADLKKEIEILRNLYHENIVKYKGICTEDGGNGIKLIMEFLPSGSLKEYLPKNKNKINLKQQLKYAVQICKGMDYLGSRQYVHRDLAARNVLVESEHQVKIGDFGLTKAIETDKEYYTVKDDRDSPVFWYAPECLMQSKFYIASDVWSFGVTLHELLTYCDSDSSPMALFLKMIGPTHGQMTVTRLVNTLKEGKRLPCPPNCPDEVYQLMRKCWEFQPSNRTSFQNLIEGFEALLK
Protocol: (§1) Human baculovirus-expressed JAK1, 2, 3 and TYK2 were purchased from Carna Biosciences, Inc. All four purified enzymes contain only the catalytic domain. JAK1 (aa 850-1154) and TYK2 (aa 871-1187) are expressed with an N-terminally fused GST-tag, and JAK2 and JAK3 with an N-terminally fused His-tag.
(§2) Inhibition of phosphorylation of a synthetic peptide was measured in an HTRF-based assay using the TK substrate-Biotin from the Cisbio HTRFKinEASE TK kit. First, 2 μl of TK solution (TK substrate-biotin in kinase buffer [1× enzymatic buffer from HTRFKinEASE TK kit, 1 mM DTT]) is added to a plate containing 1 μl prediluted compound (final assay concentration DMSO: 0.75%). Then, 5 μl kinase-ATP mix (prepared in kinase buffer) is added to the wells and the plates are incubated at RT for 20-30 min. For all four kinases a concentration of ATP that corresponded to the Km for ATP was used. The final concentrations of buffers, substrate, kinase and ATP were: JAK1: 50 mM Hepes buffer pH 7.0, 0.01% BSA, 10 mM MgCl2, 1 mM DTT, 7 μM ATP, 50 nM SEB, 1 μM TK Substrate-Biotin and 5 ng JAK1; JAK2: 50 mM Hepes buffer pH 7.0, 0.01% BSA, 5 mM MgCl2, 1 mM DTT, 4 μM ATP, 1 μM TK Substrate-Biotin and 0.1 ng JAK2; JAK3: 50 mM Hepes buffer pH 7.0, 0.01% BSA, 5 mM MgCl2, 1 mM DTT, 2 μM ATP, 1 μM TK Substrate-Biotin and 0.3 ng JAK3; TYK2: 50 mM Hepes buffer pH 7.0, 0.01% BSA, 5 mM MgCl2, 1 mM DTT, 13 μM ATP, 50 nM SEB, 1 μM TK Substrate-Biotin and 0.8 ng TYK2. Thereafter, the kinase reaction is stopped by adding 4 μl detection mix (final concentrations: 50 mM Hepes buffer pH 7.0, 0.01% BSA, 0.8 M KF, 20 mM EDTA, 42 nM Streptavidin-XL665 and 1:400 STK Ab Cryptate) and the plates are incubated overnight in the dark. The HTRF signal is read using an Envision plate reader.

TYK2 = target: T2, TYK2 (Homo sapiens, UniProt P29597); experiment: JAK kinase assay (HTRF, phosphorylation of synthetic peptide), TYK2; details: catalytic domain, ATP at Km (13 μM); read-out: TYK2 kinase inhibitory activity (EC50)
T2 construct: JAK1 (aa 850-1154) and TYK2 (aa 871-1187) are expressed with an N-terminally fused GST-tag; GST (N); purchased Carna Biosciences, Inc; host or cells: baculovirus expression system
T2 sequence (P29597 871-1187): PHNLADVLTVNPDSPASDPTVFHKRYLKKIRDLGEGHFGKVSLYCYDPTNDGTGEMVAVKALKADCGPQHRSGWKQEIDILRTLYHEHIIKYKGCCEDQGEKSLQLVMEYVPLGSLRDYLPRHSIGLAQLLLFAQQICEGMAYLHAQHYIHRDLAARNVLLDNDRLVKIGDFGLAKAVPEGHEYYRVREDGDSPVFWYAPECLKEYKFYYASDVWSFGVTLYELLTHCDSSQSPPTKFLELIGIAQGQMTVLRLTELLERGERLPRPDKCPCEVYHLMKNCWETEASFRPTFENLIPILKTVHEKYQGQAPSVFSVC
Protocol: as §1, §2

JAK3 = target: T3, JAK3 (Homo sapiens, UniProt P52333); experiment: JAK kinase assay (HTRF, phosphorylation of synthetic peptide), JAK3; details: catalytic domain, ATP at Km (2 μM); read-out: JAK3 kinase inhibitory activity (EC50)
T3 construct: All four purified enzymes contain only the catalytic domain; His (N); purchased Carna Biosciences, Inc; host or cells: baculovirus expression system
T3 sequence (P52333 822-1111 limits assumed): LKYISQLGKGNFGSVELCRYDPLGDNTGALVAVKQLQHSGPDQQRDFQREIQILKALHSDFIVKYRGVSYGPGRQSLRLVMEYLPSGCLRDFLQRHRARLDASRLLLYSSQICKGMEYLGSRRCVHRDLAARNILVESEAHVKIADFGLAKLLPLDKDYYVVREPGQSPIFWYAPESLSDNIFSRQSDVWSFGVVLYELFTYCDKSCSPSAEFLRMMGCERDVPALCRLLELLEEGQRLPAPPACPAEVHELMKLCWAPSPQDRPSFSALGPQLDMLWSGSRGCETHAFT
Protocol: as §1, §2

JAK2 = target: T4, JAK2 (Homo sapiens, UniProt O60674); experiment: JAK kinase assay (HTRF, phosphorylation of synthetic peptide), JAK2; details: catalytic domain, ATP at Km (4 μM); read-out: JAK2 kinase inhibitory activity (EC50)
T4 construct: All four purified enzymes contain only the catalytic domain; His (N); purchased Carna Biosciences, Inc; host or cells: baculovirus expression system
T4 sequence (O60674 849-1124 limits assumed): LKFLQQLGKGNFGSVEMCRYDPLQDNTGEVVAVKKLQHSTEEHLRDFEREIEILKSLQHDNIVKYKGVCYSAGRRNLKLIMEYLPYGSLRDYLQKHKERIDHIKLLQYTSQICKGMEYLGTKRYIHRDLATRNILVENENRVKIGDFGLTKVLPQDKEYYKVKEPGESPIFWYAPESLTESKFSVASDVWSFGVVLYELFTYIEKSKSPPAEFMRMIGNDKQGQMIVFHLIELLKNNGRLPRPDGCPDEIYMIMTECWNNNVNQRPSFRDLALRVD
Protocol: as §1, §2

| Compound | EC50 (JAK1) [nM] | EC50 (TYK2) [nM] | EC50 (JAK3) [nM] | EC50 (JAK2) [nM] |
| --- | --- | --- | --- | --- |
| CN(C[C@H]1CCCN1)S(=O)(=O)N1CCN(c2ncnc3[nH]ccc23)CC12CC2 [Int 51] | 100 to 500 | > 500 | > 500 | 100 to 500 |
| CC(C)N(CCO)S(=O)(=O)N1CCN(c2ncnc3[nH]ccc23)CC12CC2 [Example 97, N-(2-hydroxyethyl)-N-isopropyl-5-(7H-pyrrolo[2,3-d]pyrimidin-4-yl)-5,8-diazaspiro[2.5]octane-8-sulfonamide] | < 100 | > 500 | 100 to 500 | < 100 |
| CCC(=O)CN(CCc1ccccc1)S(=O)(=O)N1CCN(c2ncnc3[nH]ccc23)CC12CC2 [Example 4, 7-(7H-Pyrrolo[2,3-d]pyrimidin-4-yl)-4,7-diaza-spiro[2.5]octane-4-sulfonic acid (2-oxo-butyl)-phenethyl-amide] | < 100 | > 500 | 100 to 500 | < 100 |
| N#CC1CCN(S(=O)(=O)N2CCN(c3ncnc4[nH]ccc34)CC23CC3)CC1 [Example 39, 1-[7-(7H-Pyrrolo[2,3-d]pyrimidin-4-yl)-4,7-diaza-spiro[2.5]octane-4-sulfonyl]-piperidine-4-carbonitrile] | < 100 | > 500 | 100 to 500 | < 100 |
| CN(CCCc1ccccc1)S(=O)(=O)N1CCN(c2ncnc3[nH]ccc23)CC12CC2 [Example 10, 7-(7H-Pyrrolo[2,3-d]pyrimidin-4-yl)-4,7-diaza-spiro[2.5]octane-4-sulfonic acid methyl-(3-phenyl-propyl)-amide] | < 100 | > 500 | 100 to 500 | < 100 |
| N#CCN(CCO)S(=O)(=O)N1CCN(c2ncnc3[nH]ccc23)CC12CC2 [Example 108, N-(cyanomethyl)-N-(2-hydroxyethyl)-5-(7H-pyrrolo[2,3-d]pyrimidin-4-yl)-5,8-diazaspiro[2.5]octane-8-sulfonamide] | < 100 | 100 to 500 | < 100 | < 100 |
| CN(C[C@H]1CCCN1S(C)(=O)=O)S(=O)(=O)N1CCN(c2ncnc3[nH]ccc23)CC12CC2 [Example 181, N-methyl-N-[[(2R)-1-methylsulfonylpyrrolidin-2-yl]methyl]-5-(7H-pyrrolo[2,3-d]pyrimidin-4-yl)-5,8-diazaspiro[2.5]octane-8-sulfonamide] | < 100 | < 100 | < 100 | < 100 |
| N#CCN(CC#N)S(=O)(=O)N1CCN(c2ncnc3[nH]ccc23)CC12CC2 [Example 145, N,N-bis(cyanomethyl)-5-(7H-pyrrolo[2,3-d]pyrimidin-4-yl)-5,8-diazaspiro[2.5]octane-8-sulfonamide] | < 100 | 100 to 500 | < 100 | < 100 |
| CN(C[C@H]1CCCN1S(=O)(=O)CCCC#N)S(=O)(=O)N1CCN(c2ncnc3[nH]ccc23)CC12CC2 [Example 182, N-[[(2R)-1-(3-cyanopropylsulfonyl)pyrrolidin-2-yl]methyl]-N-methyl-5-(7H-pyrrolo[2,3-d]pyrimidin-4-yl)-5,8-diazaspiro[2.5]octane-8-sulfonamide] | < 100 | < 100 | < 100 | < 100 |
| CN(CC1CCN(S(=O)(=O)CCCC#N)C1)S(=O)(=O)N1CCN(c2ncnc3[nH]ccc23)CC12CC2 (centres unmarked) [Example 121, N-[[1-(3-cyanopropylsulfonyl)pyrrolidin-3-yl]methyl]-N-methyl-5-(7H-pyrrolo[2,3-d]pyrimidin-4-yl)-5,8-diazaspiro[2.5]octane-8-sulfonamide] | < 100 | 100 to 500 | < 100 | < 100 |
| CN(C)C(=O)CN(C)S(=O)(=O)N1CCN(c2ncnc3[nH]ccc23)CC12CC2 [Example 36, N,N-Dimethyl-2-{methyl-[7-(7H-pyrrolo[2,3-d]pyrimidin-4-yl)-4,7-diaza-spiro[2.5]octane-4-sulfonyl]-amino}-acetamide] | < 100 | 100 to 500 | 100 to 500 | < 100 |
